Experimental data as given in PubChem BioAssay (NCI).
Values joined by “and” are separate entries in the source; they are usually repeats but may differ in a detail not shown here. Equal values may be shown once.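 Tested at 5 concentrations; 48 h exposure; 96-well plates; endpoints linearly interpolated, else capped at highest concentration. GI50 = concentration required for 50% inhibition of growth. At the TGI there is no net growth.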

Legend:
Test in all cases: NCI-60 cell line screen, 48 h
UACC-62 melanoma = system: UACC-62 melanoma
RXF 393 renal = system: RXF 393 renal
RPMI-8226 leukemia = system: RPMI-8226 leukemia
U251 CNS = system: U251 CNS
SW-620 colon = system: SW-620 colon
SNB-75 CNS = system: SNB-75 CNS
SN12C renal = system: SN12C renal
DU-145 prostate = system: DU-145 prostate
MDA-MB-231 breast = system: MDA-MB-231 breast
T-47D breast = system: T-47D breast

SMILES | TGI (UACC-62 melanoma) | TGI (RXF 393 renal) | TGI (RPMI-8226 leukemia) [µM] | TGI (U251 CNS) | TGI (SW-620 colon) | TGI (SNB-75 CNS) | TGI (SN12C renal) | TGI (DU-145 prostate) | TGI (MDA-MB-231 breast) [µM] | TGI (T-47D breast) | GI50 (DU-145 prostate) | GI50 (MDA-MB-231 breast) [µM] | GI50 (U251 CNS) [µM] | GI50 (SN12C renal) [µM] | GI50 (RXF 393 renal) | GI50 (RPMI-8226 leukemia) | GI50 (T-47D breast) [µM] | GI50 (SNB-75 CNS) [µM] | GI50 (UACC-62 melanoma) [µM] | GI50 (SW-620 colon)
O=C1C2C(C(=O)N1c1ccccc1)C1(c3ccccc3)OC2(c2ccccc2)c2ccccc21 (stereo unspecified) | > 100 µM | > 100 µM | > 100 | > 100 µM | > 100 µM | > 100 µM | > 100 µM |  |  |  |  |  |  |  |  |  |  |  |  | 
CCCC(=O)Nc1cc([N+](=O)[O-])c([N+](=O)[O-])cc1OC | 33.7 µM |  | 68.4 | 29.8 µM | 89.9 µM | 30.3 µM | 29.5 µM | 31.6 µM | 38.9 | 19.4 µM |  |  |  |  |  |  |  |  |  | 
CCOCC(=O)N[C@H]1CCc2cc(OC(=O)COCC)c(OC)c(OC)c2-c2ccc(SC)c(=O)cc21 | > 100 µM | > 100 µM | > 100 |  | > 100 µM | > 100 µM | > 100 µM |  |  |  | 0.0315 µM | 0.036 | 0.0154 | 0.0554 |  |  |  |  |  | 
O=C1Cc2ccccc2N1c1c(Cl)cccc1Cl | > 100 µM |  | 62.7 | > 100 µM | > 100 µM | > 100 µM | > 100 µM |  |  |  |  |  |  |  |  |  |  |  |  | 
Nc1nc(Cl)c(N=Nc2ccc(Cl)cc2)c(NCC2(CO)CC(OCc3ccccc3)C2)n1 (stereo unspecified) | 55.2 µM and > 100 µM and 25.1 µM | 19.7 µM and > 100 µM and 25.6 µM | > 100 | 28.5 µM and > 100 µM and 36 µM | > 100 µM and 20 µM | 26.8 µM and > 29.1 µM and 25.5 µM | 16.9 µM and > 100 µM and 22 µM | 92.2 µM and > 100 µM and 26.5 µM |  | 73.1 µM and > 100 µM and > 77.2 µM | 6.16 µM and 14.6 µM and 4.62 µM |  |  |  | 5.17 µM and > 48.3 µM and 8.18 µM | 7.56 µM and > 44.4 µM and 14.5 µM | 8.73 | 4.55 |  | 
CCC[CH2][Sn]1([CH2]CCC)[O]C(=O)c2cccc(OC)c2[O]1 | 1.18 µM |  |  | 0.751 µM | 0.366 µM | 1.26 µM | 1.71 µM |  |  |  |  |  | 0.237 | 0.47 |  |  |  | 0.112 | 0.312 | 0.148 µM
O=C1c2cccc3cccc(c23)C(=O)N1CCCCN1CCN(CCCCOc2ccc(-c3nc4ccc(N5CCOCC5)cc4[nH]3)cc2)CC1 | > 100 µM |  | > 100 | > 100 µM | > 100 µM | > 100 µM |  | > 100 µM | > 100 | > 100 µM | > 100 µM | 9.16 | 7.93 |  |  | > 100 µM | 15.3 | > 100 | > 100 | > 100 µM
COc1ccc(/C(=N\O)c2cc(OC)c(OC)c(OC)c2)c(OC)c1N |  | > 100 µM | > 100 | > 100 µM | > 100 µM |  | > 100 µM | > 100 µM | > 100 | > 100 µM | 4.02 µM | 4.6 | 5.17 | 7.9 | 2.79 µM | 4.44 µM | > 100 |  |  | 3.97 µM
C=CCC12CC(=O)C=C1CCC1(C2)OCCO1 (stereo unspecified) | > 100 µM | > 100 µM | > 100 | > 100 µM | > 100 µM | > 100 µM | > 100 µM |  |  |  |  |  |  |  |  |  |  |  |  | 
O=C(Nc1ccc([N+](=O)[O-])cc1C(=O)O)c1ccc([N+](=O)[O-])cc1 | > 100 µM |  | 57.7 | > 100 µM | > 100 µM | > 100 µM | > 100 µM |  |  |  |  |  |  |  |  |  |  |  |  | 
O=C1Nc2ccccc2/C1=C/c1cn(C(=O)c2c(Cl)cccc2Cl)c2ccccc12 | 19.9 µM | 16.6 µM | 23.6 | 15.5 µM | 12.5 µM |  | 19.3 µM | 9.24 µM | 16.8 | 93 µM | 2.72 µM | 3.09 | 3.47 | 4 | 4.14 µM | 3.38 µM | 4.13 |  | 4.8 | 2.9 µM
C#C[C@@]1(O)CCCC2=CC(=O)C[C@]21C |  | > 100 µM | > 100 | > 100 µM | > 100 µM |  | > 100 µM |  |  |  |  |  |  |  |  |  |  |  |  | 
Cn1cnc([N+](=O)[O-])c1Sc1nc2cccnc2s1 | 32 µM | 32.9 µM | 60.4 | 65.8 µM | 26.6 µM | 65.8 µM | 33.5 µM |  |  |  |  |  |  |  |  |  |  |  |  | 
CN(C)CC(C)(C)C(/C=C/c1ccccc1)=N\Nc1ccccc1 | 1.07 µM | 32.8 µM | 19.4 | 13.4 µM | 10.4 µM | 46.8 µM | 17.6 µM |  |  |  |  |  |  |  |  |  |  |  |  | 
CC1C=CC(C)C2(O)C(=O)NC(O)C12 (stereo unspecified) | > 100 µM | > 100 µM | > 100 | > 100 µM | > 100 µM | > 100 µM | > 100 µM |  |  |  |  |  |  |  |  |  |  |  |  | 
COc1ccc2cc3[n+](cc2c1OC)CCc1cc2c(cc1-3)OCO2 |  | > 100 µM and 223 µM | > 100 |  | > 100 µM and > 73.8 µM and 170 µM |  | > 100 µM and 75.2 µM and 81 µM | > 100 µM | > 100 | 29.5 µM and 42.2 µM and > 68 µM |  | 15.9 |  |  | 50.7 µM |  | 1.88 | 21.4 | 7.24 | 14.8 µM and 25.2 µM
CN(C)c1ccc(/C=C/c2ccnc3ccccc23)cc1N | 25.9 µM |  | 15.5 | 40.8 µM | 33.3 µM | 19.5 µM | 34.4 µM | 30.2 µM | 20.1 | 5.36 µM |  |  |  |  |  |  |  |  |  | 
Oc1ccccc1Nc1nc2ccccc2c2occc12 | 21.9 µM |  | 57.8 | 24.7 µM | 26 µM |  | 23.1 µM | 21.4 µM | 22.3 | 24.1 µM | 9.66 µM | 10.1 | 12.3 | 11.1 |  | 9.11 µM | 10.1 |  | 10.3 | 13.2 µM
COC(=O)c1oc2c(O)c(OC)c(Br)cc2c1C | 30.7 µM | 67.1 µM | 47.8 | 33.1 µM | 82.5 µM |  |  |  | 37 |  |  | 16.5 | 18.2 |  | 28.6 µM | 20.9 µM |  |  | 14.7 | 30.5 µM
COc1cc(C(=O)/C=C/c2c(-c3ccc(F)cc3)nc3ncccn23)cc(OC)c1OC |  | 4.09 µM | > 100 | 12.9 µM |  | 9.37 µM | 36.1 µM | 6.11 µM | 16.5 | 9.22 µM | 1.63 µM | 2.99 | 1.68 | 2.26 | 1.44 µM | 2.56 µM | 2.09 | 2.39 |  | 
